Test results taken from PubChem BioAssay (NCI).
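Assay format: 96-well plates, 48-hour exposure. TGI: concentration producing complete growth inhibition.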 Where a SMILES comes first, the peptide text is derived from it. [ ]: non-standard residue; d: D form. The star is where a group is joined. Phe(2-OMe) = COc1ccccc1C[CH](N)C(=O)O; Cbz = O=C(OCc1ccccc1)*; OBn = c1ccc(CO*)cc1

Legend:
Experiment in all cases: growth of human tumour cells (NCI), 48 h
SF-295 CNS = tested on: SF-295 CNS
RXF 393 renal = tested on: RXF 393 renal
HOP-92 NSCLC = tested on: HOP-92 NSCLC
SR leukemia = tested on: SR leukemia
NCI-H23 lung = tested on: NCI-H23 lung
IGROV1 ovarian = tested on: IGROV1 ovarian
COLO 205 colon = tested on: COLO 205 colon
OVCAR-8 ovarian = tested on: OVCAR-8 ovarian
SN12C renal = tested on: SN12C renal
MDA-MB-435 = tested on: MDA-MB-435
SW-620 colon = tested on: SW-620 colon
EKVX NSCLC = tested on: EKVX NSCLC
786-0 renal = tested on: 786-0 renal
SF-268 CNS = tested on: SF-268 CNS
RPMI-8226 leukemia = tested on: RPMI-8226 leukemia
HL-60(TB) leukemia = tested on: HL-60(TB) leukemia
OVCAR-3 ovarian = tested on: OVCAR-3 ovarian
HT29 colon = tested on: HT29 colon
LOX IMVI melanoma = tested on: LOX IMVI melanoma
OVCAR-5 ovarian = tested on: OVCAR-5 ovarian
NCI-H522 lung = tested on: NCI-H522 lung
CCRF-CEM leukemia = tested on: CCRF-CEM leukemia
UACC-257 melanoma = tested on: UACC-257 melanoma
MDA-MB-231 breast = tested on: MDA-MB-231 breast
PC-3 prostate = tested on: PC-3 prostate
M14 melanoma = tested on: M14 melanoma
HS 578T breast = tested on: HS 578T breast
NCI-H460 lung = tested on: NCI-H460 lung
SK-MEL-5 melanoma = tested on: SK-MEL-5 melanoma
TK-10 renal = tested on: TK-10 renal
MALME-3M melanoma = tested on: MALME-3M melanoma
UO-31 renal = tested on: UO-31 renal
CAKI-1 renal = tested on: CAKI-1 renal
DU-145 prostate = tested on: DU-145 prostate
A549 NSCLC = tested on: A549 NSCLC
SF-539 CNS = tested on: SF-539 CNS
UACC-62 melanoma = tested on: UACC-62 melanoma
MDA-N = tested on: MDA-N
NCI-H226 lung = tested on: NCI-H226 lung
SK-MEL-2 melanoma = tested on: SK-MEL-2 melanoma
HCT-15 colon = tested on: HCT-15 colon
ACHN renal = tested on: ACHN renal
MOLT-4 leukemia = tested on: MOLT-4 leukemia
U251 CNS = tested on: U251 CNS
NCI/ADR-RES ovarian = tested on: NCI/ADR-RES ovarian
BT-549 breast = tested on: BT-549 breast
SNB-19 CNS = tested on: SNB-19 CNS
SK-OV-3 ovarian = tested on: SK-OV-3 ovarian
HCT-116 colon = tested on: HCT-116 colon
KM12 colon = tested on: KM12 colon
HOP-62 NSCLC = tested on: HOP-62 NSCLC
HCC-2998 colon = tested on: HCC-2998 colon
SK-MEL-28 melanoma = tested on: SK-MEL-28 melanoma
A498 renal = tested on: A498 renal
MCF7 breast = tested on: MCF7 breast
K-562 leukemia = tested on: K-562 leukemia
SNB-75 CNS = tested on: SNB-75 CNS
OVCAR-4 ovarian = tested on: OVCAR-4 ovarian

O=Cc1cn(CCCCCn2cc(C=O)c3ccccc32)c2ccccc12
TGI (SF-295 CNS): > 100 µM | TGI (RXF 393 renal): > 100 µM | TGI (HOP-92 NSCLC): > 100 µM | TGI (SR leukemia): > 100 µM | TGI (NCI-H23 lung): > 100 µM | TGI (IGROV1 ovarian): > 100 µM | TGI (COLO 205 colon): > 100 µM | TGI (OVCAR-8 ovarian): > 100 µM | TGI (SN12C renal): > 100 µM | TGI (MDA-MB-435): > 100 µM | TGI (SW-620 colon): > 100 µM | TGI (EKVX NSCLC): > 100 µM | TGI (786-0 renal): > 100 µM | TGI (SF-268 CNS): 72.6 µM | TGI (RPMI-8226 leukemia): > 100 µM | TGI (HL-60(TB) leukemia): > 100 µM | TGI (OVCAR-3 ovarian): > 100 µM | TGI (HT29 colon): > 100 µM | TGI (LOX IMVI melanoma): > 100 µM | TGI (OVCAR-5 ovarian): 6.5 µM | TGI (NCI-H522 lung): > 100 µM | TGI (CCRF-CEM leukemia): > 100 µM | TGI (UACC-257 melanoma): > 100 µM | TGI (MDA-MB-231 breast): > 100 µM | TGI (PC-3 prostate): > 100 µM | TGI (M14 melanoma): > 100 µM | TGI (HS 578T breast): 62.2 µM | TGI (NCI-H460 lung): 11.4 µM | TGI (SK-MEL-5 melanoma): > 100 µM | TGI (TK-10 renal): > 100 µM | TGI (MALME-3M melanoma): > 100 µM | TGI (UO-31 renal): > 100 µM | TGI (CAKI-1 renal): > 100 µM | TGI (DU-145 prostate): > 100 µM | TGI (A549 NSCLC): > 100 µM | TGI (SF-539 CNS): > 100 µM | TGI (UACC-62 melanoma): > 100 µM | TGI (MDA-N): > 100 µM | TGI (NCI-H226 lung): > 100 µM | TGI (SK-MEL-2 melanoma): > 100 µM | TGI (HCT-15 colon): > 100 µM | TGI (ACHN renal): > 100 µM | TGI (MOLT-4 leukemia): > 100 µM | TGI (U251 CNS): > 100 µM | TGI (NCI/ADR-RES ovarian): > 100 µM | TGI (BT-549 breast): > 100 µM | TGI (SNB-19 CNS): > 100 µM | TGI (SK-OV-3 ovarian): > 100 µM | TGI (HCT-116 colon): > 100 µM

COC(=O)C(Cc1ccccc1OC)NC(=O)C(CC(=O)OCc1ccccc1)NC(=O)OCc1ccccc1 (stereo not drawn) (Cbz-Asp(OBn)-[Phe(2-OMe)]-OMe; configuration not given here)
TGI (RXF 393 renal): > 100 µM | TGI (HOP-92 NSCLC): > 100 µM | TGI (SR leukemia): 84.6 µM | TGI (NCI-H23 lung): > 100 µM | TGI (IGROV1 ovarian): > 100 µM | TGI (COLO 205 colon): > 100 µM | TGI (KM12 colon): > 100 µM | TGI (OVCAR-8 ovarian): > 100 µM | TGI (SW-620 colon): > 100 µM | TGI (EKVX NSCLC): > 100 µM | TGI (786-0 renal): > 100 µM | TGI (RPMI-8226 leukemia): > 100 µM | TGI (HL-60(TB) leukemia): > 100 µM | TGI (HT29 colon): > 100 µM | TGI (OVCAR-5 ovarian): > 100 µM | TGI (CCRF-CEM leukemia): > 100 µM | TGI (UACC-257 melanoma): > 100 µM | TGI (HOP-62 NSCLC): > 100 µM | TGI (PC-3 prostate): > 100 µM | TGI (M14 melanoma): > 100 µM | TGI (HCC-2998 colon): > 100 µM | TGI (HS 578T breast): > 100 µM | TGI (NCI-H460 lung): > 100 µM | TGI (SK-MEL-5 melanoma): > 100 µM | TGI (TK-10 renal): > 100 µM | TGI (MALME-3M melanoma): > 100 µM | TGI (SK-MEL-28 melanoma): > 100 µM | TGI (UO-31 renal): > 100 µM | TGI (A498 renal): > 100 µM | TGI (A549 NSCLC): > 100 µM | TGI (UACC-62 melanoma): > 100 µM | TGI (MDA-N): > 100 µM | TGI (NCI-H226 lung): > 100 µM | TGI (SK-MEL-2 melanoma): > 100 µM | TGI (ACHN renal): > 100 µM | TGI (MOLT-4 leukemia): > 100 µM | TGI (MCF7 breast): > 100 µM | TGI (U251 CNS): > 100 µM | TGI (K-562 leukemia): > 100 µM | TGI (BT-549 breast): > 100 µM | TGI (SNB-19 CNS): > 100 µM | TGI (SNB-75 CNS): > 100 µM | TGI (HCT-116 colon): > 100 µM

CSc1cc(Cl)c(C)cc1S(=O)(=O)NC(=O)Nc1ccc(Cl)cc1
TGI (SF-295 CNS): > 100 µM | TGI (RXF 393 renal): 51.7 µM | TGI (HOP-92 NSCLC): 45.5 µM | TGI (SR leukemia): > 100 µM | TGI (NCI-H23 lung): 40.4 µM | TGI (IGROV1 ovarian): > 100 µM | TGI (COLO 205 colon): 29.8 µM | TGI (KM12 colon): 80.8 µM | TGI (OVCAR-8 ovarian): > 100 µM | TGI (SN12C renal): > 100 µM | TGI (OVCAR-4 ovarian): > 100 µM | TGI (MDA-MB-435): 88 µM | TGI (SW-620 colon): 92.7 µM | TGI (EKVX NSCLC): 87.8 µM | TGI (786-0 renal): > 100 µM | TGI (SF-268 CNS): > 100 µM | TGI (RPMI-8226 leukemia): > 100 µM | TGI (HL-60(TB) leukemia): 28 µM | TGI (OVCAR-3 ovarian): 74 µM | TGI (HT29 colon): > 100 µM | TGI (LOX IMVI melanoma): 52.5 µM | TGI (OVCAR-5 ovarian): > 100 µM | TGI (NCI-H522 lung): 41.4 µM | TGI (CCRF-CEM leukemia): 39.2 µM | TGI (UACC-257 melanoma): 79.8 µM | TGI (HOP-62 NSCLC): 63.2 µM | TGI (MDA-MB-231 breast): > 100 µM | TGI (PC-3 prostate): > 100 µM | TGI (M14 melanoma): > 100 µM | TGI (HCC-2998 colon): 38.4 µM | TGI (HS 578T breast): > 100 µM | TGI (NCI-H460 lung): > 100 µM | TGI (SK-MEL-5 melanoma): 64.9 µM | TGI (TK-10 renal): 81.5 µM | TGI (MALME-3M melanoma): 85.1 µM | TGI (SK-MEL-28 melanoma): > 100 µM | TGI (UO-31 renal): 31.5 µM | TGI (CAKI-1 renal): > 100 µM | TGI (A498 renal): > 100 µM | TGI (A549 NSCLC): > 100 µM | TGI (UACC-62 melanoma): 14.8 µM | TGI (MDA-N): > 100 µM | TGI (NCI-H226 lung): 45.1 µM | TGI (SK-MEL-2 melanoma): 49 µM | TGI (HCT-15 colon): 84.1 µM | TGI (ACHN renal): > 100 µM | TGI (MOLT-4 leukemia): 40.9 µM | TGI (MCF7 breast): > 100 µM | TGI (U251 CNS): > 100 µM | TGI (NCI/ADR-RES ovarian): 97.1 µM | TGI (K-562 leukemia): > 100 µM | TGI (BT-549 breast): > 100 µM | TGI (SNB-19 CNS): 92 µM | TGI (SNB-75 CNS): 62.1 µM | TGI (SK-OV-3 ovarian): > 100 µM | TGI (HCT-116 colon): 35.7 µM
